Here are results for twelve molecules from ChEMBL document CHEMBL2346538, “Synthesis, cyclooxygenase inhibitory effects, and molecular modeling study of 4-aryl-5-(4-(methylsulfonyl)phenyl)-2-alkylthio and -2-alkylsulfonyl-1H-imidazole derivatives” (Bioorg Med Chem, 2013).

Molecules are shown by their SMILES. pIC50: −log10 of the molar value.

For the assay, the target named is T1, Prostaglandin G/H synthase 2 (Homo sapiens, UniProt P35354).
T1 sequence (P35354 whole entry): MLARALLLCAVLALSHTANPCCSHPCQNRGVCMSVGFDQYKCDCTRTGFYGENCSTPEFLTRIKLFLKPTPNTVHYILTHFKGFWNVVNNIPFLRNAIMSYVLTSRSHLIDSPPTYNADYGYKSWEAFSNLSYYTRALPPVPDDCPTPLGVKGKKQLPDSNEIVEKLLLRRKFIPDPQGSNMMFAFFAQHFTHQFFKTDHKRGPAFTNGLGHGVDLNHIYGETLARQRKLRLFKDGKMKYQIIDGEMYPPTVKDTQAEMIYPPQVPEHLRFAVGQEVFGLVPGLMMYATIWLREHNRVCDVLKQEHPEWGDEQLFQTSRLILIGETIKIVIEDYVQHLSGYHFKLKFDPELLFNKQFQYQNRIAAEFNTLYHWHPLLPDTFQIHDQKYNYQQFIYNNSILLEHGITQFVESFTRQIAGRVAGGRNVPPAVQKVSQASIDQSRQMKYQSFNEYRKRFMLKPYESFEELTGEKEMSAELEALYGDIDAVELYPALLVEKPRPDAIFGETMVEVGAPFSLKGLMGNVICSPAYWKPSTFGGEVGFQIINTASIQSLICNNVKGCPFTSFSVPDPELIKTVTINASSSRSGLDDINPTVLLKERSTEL
Description: Inhibition of COX2 in human blood assessed as TxB2 level after 1 hr by enzyme immunoassay.
As to `CCS(=O)(=O)c1nc(-c2ccccc2)c(-c2ccc(S(C)(=O)=O)cc2)[nH]1`, the pIC50 is 6.62. On to `CS(=O)(=O)c1ccc(-c2[nH]c(S(C)(=O)=O)nc2-c2ccc(Cl)cc2)cc1`, for which the pIC50 was 6.51. For `CSc1nc(-c2ccccc2)c(-c2ccc(S(C)(=O)=O)cc2)[nH]1` the value was 7.22. On to `CS(=O)(=O)c1ccc(-c2[nH]c(S(C)(=O)=O)nc2-c2ccccc2)cc1`, for which the pIC50 is 6.55.

Consider `CCSc1nc(-c2ccc(F)cc2)c(-c2ccc(S(C)(=O)=O)cc2)[nH]1`, for which the pIC50 is 7.10. With `CS(=O)(=O)c1ccc(-c2[nH]c(S(C)(=O)=O)nc2-c2ccc(F)cc2)cc1`, the pIC50 is 6.55. Take `CCSc1nc(-c2ccccc2)c(-c2ccc(S(C)(=O)=O)cc2)[nH]1`: the pIC50 is 7.30. Consider `CCS(=O)(=O)c1nc(-c2ccc(Cl)cc2)c(-c2ccc(S(C)(=O)=O)cc2)[nH]1`, for which the pIC50 was 6.49.

Regarding `CSc1nc(-c2ccc(Cl)cc2)c(-c2ccc(S(C)(=O)=O)cc2)[nH]1`, the pIC50 is 7.00. Turning to `CCS(=O)(=O)c1nc(-c2ccc(F)cc2)c(-c2ccc(S(C)(=O)=O)cc2)[nH]1`, the pIC50 was 6.51. For the molecule `CCSc1nc(-c2ccc(Cl)cc2)c(-c2ccc(S(C)(=O)=O)cc2)[nH]1`, the pIC50 is 6.96. Consider `CSc1nc(-c2ccc(F)cc2)c(-c2ccc(S(C)(=O)=O)cc2)[nH]1`, for which the pIC50 is 7.15.
